Source: PubChem BioAssay (NCI)
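Compound exposure: 48 hours, 5 concentrations, 96-well plates. TGI: concentration producing complete growth inhibition.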

Key:
Assay in all cases: NCI-60 cell line screen, 48 h
DU-145 prostate = test system: DU-145 prostate
NCI-H226 lung = test system: NCI-H226 lung
OVCAR-8 ovarian = test system: OVCAR-8 ovarian
KM12 colon = test system: KM12 colon
UO-31 renal = test system: UO-31 renal
NCI-H460 lung = test system: NCI-H460 lung
TK-10 renal = test system: TK-10 renal
HOP-92 NSCLC = test system: HOP-92 NSCLC
SK-OV-3 ovarian = test system: SK-OV-3 ovarian
SF-295 CNS = test system: SF-295 CNS
SF-268 CNS = test system: SF-268 CNS
UACC-257 melanoma = test system: UACC-257 melanoma
EKVX NSCLC = test system: EKVX NSCLC
M14 melanoma = test system: M14 melanoma
T-47D breast = test system: T-47D breast
CCRF-CEM leukemia = test system: CCRF-CEM leukemia
MOLT-4 leukemia = test system: MOLT-4 leukemia
NCI/ADR-RES ovarian = test system: NCI/ADR-RES ovarian
UACC-62 melanoma = test system: UACC-62 melanoma
SW-620 colon = test system: SW-620 colon
IGROV1 ovarian = test system: IGROV1 ovarian
PC-3 prostate = test system: PC-3 prostate
OVCAR-5 ovarian = test system: OVCAR-5 ovarian
HCT-116 colon = test system: HCT-116 colon
NCI-H23 lung = test system: NCI-H23 lung
K-562 leukemia = test system: K-562 leukemia
HL-60(TB) leukemia = test system: HL-60(TB) leukemia
SNB-75 CNS = test system: SNB-75 CNS
RPMI-8226 leukemia = test system: RPMI-8226 leukemia
HOP-62 NSCLC = test system: HOP-62 NSCLC
SF-539 CNS = test system: SF-539 CNS
NCI-H522 lung = test system: NCI-H522 lung
ACHN renal = test system: ACHN renal
RXF 393 renal = test system: RXF 393 renal
U251 CNS = test system: U251 CNS
MDA-MB-435 = test system: MDA-MB-435
MDA-MB-231 breast = test system: MDA-MB-231 breast
HT29 colon = test system: HT29 colon
786-0 renal = test system: 786-0 renal
BT-549 breast = test system: BT-549 breast
COLO 205 colon = test system: COLO 205 colon
MDA-N = test system: MDA-N
SK-MEL-28 melanoma = test system: SK-MEL-28 melanoma
OVCAR-4 ovarian = test system: OVCAR-4 ovarian
A549 NSCLC = test system: A549 NSCLC
SN12C renal = test system: SN12C renal
MALME-3M melanoma = test system: MALME-3M melanoma
SR leukemia = test system: SR leukemia
OVCAR-3 ovarian = test system: OVCAR-3 ovarian
HS 578T breast = test system: HS 578T breast
LOX IMVI melanoma = test system: LOX IMVI melanoma
SK-MEL-2 melanoma = test system: SK-MEL-2 melanoma
HCT-15 colon = test system: HCT-15 colon
MCF7 breast = test system: MCF7 breast
SNB-19 CNS = test system: SNB-19 CNS
SK-MEL-5 melanoma = test system: SK-MEL-5 melanoma
HCC-2998 colon = test system: HCC-2998 colon
CAKI-1 renal = test system: CAKI-1 renal
A498 renal = test system: A498 renal

CCOC(=O)C(=O)C(=O)NN(C)C1=NCCN1
TGI (DU-145 prostate): > 100 µM | TGI (NCI-H226 lung): > 100 µM | TGI (OVCAR-8 ovarian): > 100 µM | TGI (KM12 colon): > 100 µM | TGI (UO-31 renal): > 100 µM | TGI (NCI-H460 lung): > 100 µM | TGI (TK-10 renal): > 100 µM | TGI (HOP-92 NSCLC): > 100 µM | TGI (SK-OV-3 ovarian): > 100 µM | TGI (SF-295 CNS): > 100 µM | TGI (SF-268 CNS): > 100 µM | TGI (UACC-257 melanoma): > 100 µM | TGI (EKVX NSCLC): > 100 µM | TGI (M14 melanoma): > 100 µM | TGI (T-47D breast): > 100 µM | TGI (CCRF-CEM leukemia): > 100 µM | TGI (MOLT-4 leukemia): > 100 µM | TGI (NCI/ADR-RES ovarian): > 100 µM | TGI (UACC-62 melanoma): > 100 µM | TGI (SW-620 colon): > 100 µM | TGI (IGROV1 ovarian): > 100 µM | TGI (PC-3 prostate): > 100 µM | TGI (OVCAR-5 ovarian): > 100 µM | TGI (HCT-116 colon): > 100 µM | TGI (NCI-H23 lung): > 100 µM | TGI (K-562 leukemia): > 100 µM | TGI (HL-60(TB) leukemia): > 100 µM | TGI (SNB-75 CNS): > 100 µM | TGI (RPMI-8226 leukemia): > 100 µM | TGI (HOP-62 NSCLC): > 100 µM | TGI (SF-539 CNS): > 100 µM | TGI (NCI-H522 lung): > 100 µM | TGI (ACHN renal): > 100 µM | TGI (RXF 393 renal): > 100 µM | TGI (U251 CNS): > 100 µM | TGI (MDA-MB-435): > 100 µM | TGI (MDA-MB-231 breast): > 100 µM | TGI (HT29 colon): > 100 µM | TGI (786-0 renal): > 100 µM | TGI (BT-549 breast): > 100 µM | TGI (COLO 205 colon): > 100 µM | TGI (MDA-N): > 100 µM | TGI (SK-MEL-28 melanoma): > 100 µM | TGI (OVCAR-4 ovarian): > 100 µM | TGI (A549 NSCLC): > 100 µM | TGI (SN12C renal): > 100 µM | TGI (MALME-3M melanoma): > 100 µM | TGI (SR leukemia): > 100 µM | TGI (OVCAR-3 ovarian): > 100 µM | TGI (HS 578T breast): > 100 µM | TGI (LOX IMVI melanoma): > 100 µM | TGI (SK-MEL-2 melanoma): > 100 µM | TGI (HCT-15 colon): > 100 µM | TGI (MCF7 breast): > 100 µM | TGI (SNB-19 CNS): > 100 µM | TGI (SK-MEL-5 melanoma): > 100 µM | TGI (HCC-2998 colon): > 100 µM

Cc1ccc(-c2n[nH]c(=O)n2/N=C\c2ccccc2)cc1
TGI (DU-145 prostate): > 100 µM | TGI (NCI-H226 lung): > 100 µM | TGI (OVCAR-8 ovarian): > 100 µM | TGI (KM12 colon): > 100 µM | TGI (UO-31 renal): > 100 µM | TGI (NCI-H460 lung): > 100 µM | TGI (TK-10 renal): > 100 µM | TGI (HOP-92 NSCLC): 66.4 µM | TGI (SF-295 CNS): 69 µM | TGI (SF-268 CNS): > 89.1 µM | TGI (UACC-257 melanoma): > 100 µM | TGI (EKVX NSCLC): > 100 µM | TGI (M14 melanoma): > 100 µM | TGI (T-47D breast): > 100 µM | TGI (CCRF-CEM leukemia): > 100 µM | TGI (MOLT-4 leukemia): > 100 µM | TGI (NCI/ADR-RES ovarian): > 100 µM | TGI (UACC-62 melanoma): > 100 µM | TGI (SW-620 colon): > 100 µM | TGI (IGROV1 ovarian): > 100 µM | TGI (PC-3 prostate): > 100 µM | TGI (OVCAR-5 ovarian): > 100 µM | TGI (HCT-116 colon): > 100 µM | TGI (NCI-H23 lung): > 100 µM | TGI (K-562 leukemia): > 100 µM | TGI (HL-60(TB) leukemia): > 100 µM | TGI (SNB-75 CNS): 80.3 µM | TGI (RPMI-8226 leukemia): > 100 µM | TGI (HOP-62 NSCLC): 62.1 µM | TGI (SF-539 CNS): > 100 µM | TGI (NCI-H522 lung): > 100 µM | TGI (ACHN renal): > 100 µM | TGI (RXF 393 renal): > 81.5 µM | TGI (U251 CNS): > 100 µM | TGI (MDA-MB-435): > 100 µM | TGI (CAKI-1 renal): > 100 µM | TGI (MDA-MB-231 breast): > 100 µM | TGI (HT29 colon): > 100 µM | TGI (786-0 renal): > 100 µM | TGI (BT-549 breast): > 73.8 µM | TGI (COLO 205 colon): > 100 µM | TGI (MDA-N): > 93.9 µM | TGI (SK-MEL-28 melanoma): > 100 µM | TGI (OVCAR-4 ovarian): > 100 µM | TGI (A549 NSCLC): > 100 µM | TGI (SN12C renal): > 90.4 µM | TGI (MALME-3M melanoma): > 100 µM | TGI (SR leukemia): > 100 µM | TGI (OVCAR-3 ovarian): > 100 µM | TGI (HS 578T breast): 81.3 µM | TGI (LOX IMVI melanoma): > 100 µM | TGI (SK-MEL-2 melanoma): 99.8 µM | TGI (A498 renal): > 100 µM | TGI (HCT-15 colon): > 100 µM | TGI (MCF7 breast): > 100 µM | TGI (SNB-19 CNS): > 100 µM | TGI (SK-MEL-5 melanoma): > 100 µM | TGI (HCC-2998 colon): > 100 µM

CCOP(=O)(Nc1ccc2oc(=O)c3ccccc3c2c1)OCC
TGI (DU-145 prostate): > 100 µM | TGI (NCI-H226 lung): > 100 µM | TGI (OVCAR-8 ovarian): > 100 µM | TGI (NCI-H460 lung): > 100 µM | TGI (TK-10 renal): > 100 µM | TGI (HOP-92 NSCLC): > 100 µM | TGI (SF-295 CNS): > 100 µM | TGI (SF-268 CNS): > 100 µM | TGI (UACC-257 melanoma): > 100 µM | TGI (EKVX NSCLC): > 100 µM | TGI (M14 melanoma): > 100 µM | TGI (T-47D breast): > 100 µM | TGI (CCRF-CEM leukemia): > 100 µM | TGI (MOLT-4 leukemia): > 100 µM | TGI (NCI/ADR-RES ovarian): > 100 µM | TGI (UACC-62 melanoma): > 100 µM | TGI (SW-620 colon): > 100 µM | TGI (IGROV1 ovarian): > 100 µM | TGI (PC-3 prostate): > 100 µM | TGI (OVCAR-5 ovarian): > 100 µM | TGI (HCT-116 colon): > 100 µM | TGI (NCI-H23 lung): > 100 µM | TGI (K-562 leukemia): > 100 µM | TGI (HL-60(TB) leukemia): 55.8 µM | TGI (SNB-75 CNS): > 100 µM | TGI (RPMI-8226 leukemia): 98.2 µM | TGI (HOP-62 NSCLC): > 100 µM | TGI (SF-539 CNS): > 100 µM | TGI (NCI-H522 lung): > 100 µM | TGI (ACHN renal): > 100 µM | TGI (RXF 393 renal): > 100 µM | TGI (U251 CNS): > 100 µM | TGI (MDA-MB-435): > 100 µM | TGI (CAKI-1 renal): > 100 µM | TGI (MDA-MB-231 breast): > 100 µM | TGI (HT29 colon): > 100 µM | TGI (786-0 renal): > 100 µM | TGI (BT-549 breast): > 100 µM | TGI (COLO 205 colon): > 100 µM | TGI (MDA-N): > 100 µM | TGI (SK-MEL-28 melanoma): > 100 µM | TGI (OVCAR-4 ovarian): > 100 µM | TGI (A549 NSCLC): > 100 µM | TGI (SN12C renal): > 100 µM | TGI (MALME-3M melanoma): > 100 µM | TGI (SR leukemia): > 100 µM | TGI (OVCAR-3 ovarian): > 100 µM | TGI (HS 578T breast): > 100 µM | TGI (LOX IMVI melanoma): > 100 µM | TGI (SK-MEL-2 melanoma): > 100 µM | TGI (A498 renal): > 100 µM | TGI (HCT-15 colon): > 100 µM | TGI (MCF7 breast): > 100 µM | TGI (SNB-19 CNS): > 100 µM | TGI (SK-MEL-5 melanoma): > 100 µM | TGI (HCC-2998 colon): > 100 µM
